# Experimental data from the supplement of paper PMC10307832.
# Compound: CCN1CCN(c2ccc(Nc3cc(N(C)C(=O)Nc4c(Cl)c(OC)cc(OC)c4Cl)ncn3)cc2)CC1 [BGJ398] + CS(=O)(=O)CCNCc1ccc(-c2ccc3ncnc(Nc4ccc(OCc5cccc(F)c5)c(Cl)c4)c3c2)o1 [Lapatinib] (partner 2 µM)
# Test: relative viability (nuclei count vs DMSO), 5 days (fraction); higher = more cells survive
# Details: first compound 0.01 µM
# Procedure, shortened: (§1)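 Lung cancer cell lines, seeded in 1536-well plates, were treated the following day by pin tool with a single drug or with five library-drug doses (not always all listed) in √10 steps on top of a fixed anchor-drug dose. Cells were fixed and nuclei stained in one step after 5 days, and nuclei were counted. Relative viability is the nuclei count for treated wells divided by that for vehicle wells, reported as medians of duplicate plates.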
row,Cell Line,relative viability
1,NCI-H727,1.05
2,NCI-H1650,0.608
3,EBC-1,0.215
4,NCI-H1703,0.988
5,NCI-H1993,0.8
6,SW 1573,1.03
7,NCI-H838,0.755
8,NCI-H520,0.747
9,NCI-H2126,0.808
10,EMC-BAC-2,0.872

# Same assay, conditions: first compound 0.03162 µM
row,Cell Line,relative viability
1,NCI-H727,0.799
2,NCI-H1650,0.828
3,EBC-1,0.222
4,NCI-H1703,1.32
5,NCI-H1993,0.825
6,SW 1573,1.12
7,NCI-H838,0.867
8,NCI-H520,0.722
9,NCI-H2126,0.765
10,EMC-BAC-2,0.982

# Same assay, conditions: first compound 0.1 µM
row,Cell Line,relative viability
1,NCI-H727,1.22
2,NCI-H1650,0.367
3,EBC-1,0.178
4,NCI-H1703,1.04
5,NCI-H1993,0.87
6,SW 1573,1.08
7,NCI-H838,0.914
8,NCI-H520,0.661
9,NCI-H2126,0.764
10,EMC-BAC-2,0.899

# Same assay, conditions: first compound 0.3162 µM
row,Cell Line,relative viability
1,NCI-H727,0.789
2,NCI-H1650,0.32
3,EBC-1,0.23
4,NCI-H1703,1.05
5,NCI-H1993,0.935
6,SW 1573,1.02
7,NCI-H838,0.623
8,NCI-H520,0.339
9,NCI-H2126,0.785
10,EMC-BAC-2,0.832

# Same assay, conditions: first compound 1 µM
row,Cell Line,relative viability
1,NCI-H727,0.648
2,NCI-H1650,0.234
3,EBC-1,0.21
4,NCI-H1703,1.36
5,NCI-H1993,0.746
6,SW 1573,0.984
7,NCI-H838,0.413
8,NCI-H520,0.281
9,NCI-H2126,0.678
10,EMC-BAC-2,0.838

# Compound: C1=CC2=NC=CN=C2C=C1/C=C/3\C(=O)NC(=O)S3 + CS(=O)(=O)N1CCN(Cc2cc3nc(-c4cccc5[nH]ncc45)nc(N4CCOCC4)c3s2)CC1 [Pictilisib] (partner 1 µM)
# Test: as above
# Details: first compound 0.02 µM
# Procedure, shortened: as §1
row,Cell Line,relative viability
1,NCI-H727,0.432
2,NCI-H1650,0.562
3,EBC-1,0.407
4,NCI-H1703,0.241
5,NCI-H1993,0.811
6,SW 1573,0.525
7,NCI-H838,0.395
8,LCLC-103H,0.61
9,NCI-H520,0.306
10,NCI-H2126,0.448
11,EMC-BAC-2,0.431
12,ChaGo-K-1,0.886
13,NCI-H441,0.453

# Same assay, conditions: first compound 0.06325 µM
row,Cell Line,relative viability
1,NCI-H727,0.394
2,NCI-H1650,0.531
3,EBC-1,0.518
4,NCI-H1703,0.318
5,NCI-H1993,0.881
6,SW 1573,0.511
7,NCI-H838,0.446
8,LCLC-103H,0.768
9,NCI-H520,0.356
10,NCI-H2126,0.56
11,EMC-BAC-2,0.552
12,ChaGo-K-1,1.26
13,NCI-H441,0.48

# Same assay, conditions: first compound 0.2 µM
row,Cell Line,relative viability
1,NCI-H727,0.367
2,NCI-H1650,0.594
3,EBC-1,0.42
4,NCI-H1703,0.187
5,NCI-H1993,0.757
6,SW 1573,0.524
7,NCI-H838,0.429
8,LCLC-103H,0.706
9,NCI-H520,0.32
10,NCI-H2126,0.498
11,EMC-BAC-2,0.563
12,ChaGo-K-1,1.07
13,NCI-H441,0.447

# Same assay, conditions: first compound 0.6325 µM
row,Cell Line,relative viability
1,NCI-H727,0.328
2,NCI-H1650,0.553
3,EBC-1,0.413
4,NCI-H1703,0.243
5,NCI-H1993,0.878
6,SW 1573,0.555
7,NCI-H838,0.369
8,LCLC-103H,0.539
9,NCI-H520,0.242
10,NCI-H2126,0.474
11,EMC-BAC-2,0.482
12,ChaGo-K-1,0.665
13,NCI-H441,0.573

# Same assay, conditions: first compound 2 µM
row,Cell Line,relative viability
1,NCI-H727,0.198
2,NCI-H1650,0.656
3,EBC-1,0.459
4,NCI-H1703,0.232
5,NCI-H1993,0.592
6,SW 1573,0.441
7,NCI-H838,0.322
8,LCLC-103H,0.531
9,NCI-H520,0.246
10,NCI-H2126,0.411
11,EMC-BAC-2,0.463
12,ChaGo-K-1,0.621
13,NCI-H441,0.477

# Compound: C1=CC2=NC=CN=C2C=C1/C=C/3\C(=O)NC(=O)S3
# Test: relative viability (nuclei count vs DMSO), 5 days (fraction); higher = more cells survive
# Details: 0.02 µM
# Procedure, shortened: (§2)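 Vehicle-anchored 1536-well plates of lung cancer cell lines, held overnight at 37 °C, were pinned with five library-drug doses (not always all listed) spaced by √10. No medium change followed over the next 5 days, after which the cells were fixed, permeabilised and Hoechst-stained together and imaged at 4×. Nuclei were counted with MetaXpress, and viability is treated-well nuclei over vehicle-well nuclei, taken as a median across plates. Plates passed with control CV below 25% and at least one doubling.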
row,Cell Line,relative viability
1,NCI-H522,0.934
2,NCI-H1623,0.936
3,NCI-H727,0.931
4,NCI-H1650,0.953
5,EBC-1,0.913
6,NCI-H1703,1.09
7,NCI-H1993,0.815
8,SW 1573,0.984
9,NCI-H838,0.96
10,LCLC-103H,0.957
11,NCI-H520,1.03
12,NCI-H2126,0.885
13,EMC-BAC-2,0.951
14,NCI-H2342,0.832
15,ChaGo-K-1,0.972
16,SW 900,0.888
17,NCI-H1648,0.925
18,NCI-H441,0.863

# Same assay, conditions: 0.06325 µM
row,Cell Line,relative viability
1,NCI-H522,1.13
2,NCI-H1623,0.806
3,NCI-H727,0.856
4,NCI-H1650,0.952
5,EBC-1,1.04
6,NCI-H1703,1.33
7,NCI-H1993,0.956
8,SW 1573,1.26
9,NCI-H838,0.957
10,LCLC-103H,1.05
11,NCI-H520,1.14
12,NCI-H2126,1.07
13,EMC-BAC-2,1.1
14,NCI-H2342,1.01
15,ChaGo-K-1,0.991
16,SW 900,0.978
17,NCI-H1648,0.605
18,NCI-H441,0.875

# Same assay, conditions: 0.2 µM
row,Cell Line,relative viability
1,NCI-H522,1
2,NCI-H1623,0.909
3,NCI-H727,1.13
4,NCI-H1650,0.974
5,EBC-1,0.957
6,NCI-H1703,0.942
7,NCI-H1993,1.02
8,SW 1573,1.09
9,NCI-H838,1.02
10,LCLC-103H,0.969
11,NCI-H520,1.06
12,NCI-H2126,0.956
13,EMC-BAC-2,1.1
14,NCI-H2342,0.989
15,ChaGo-K-1,1.09
16,SW 900,1.04
17,NCI-H1648,1.11
18,NCI-H441,0.885

# Same assay, conditions: 0.6325 µM
row,Cell Line,relative viability
1,NCI-H522,0.75
2,NCI-H1623,0.957
3,NCI-H727,0.888
4,NCI-H1650,1
5,EBC-1,1.05
6,NCI-H1703,0.864
7,NCI-H1993,0.923
8,SW 1573,0.948
9,NCI-H838,0.821
10,LCLC-103H,0.918
11,NCI-H520,0.855
12,NCI-H2126,0.979
13,EMC-BAC-2,0.944
14,NCI-H2342,0.904
15,ChaGo-K-1,0.919
16,SW 900,0.705
17,NCI-H1648,0.701
18,NCI-H441,1.2

# Same assay, conditions: 2 µM
row,Cell Line,relative viability
1,NCI-H522,0.751
2,NCI-H1623,0.786
3,NCI-H727,0.558
4,NCI-H1650,0.975
5,EBC-1,1.01
6,NCI-H1703,0.736
7,NCI-H1993,0.622
8,SW 1573,0.79
9,NCI-H838,0.776
10,LCLC-103H,0.852
11,NCI-H520,0.927
12,NCI-H2126,0.621
13,EMC-BAC-2,0.554
14,NCI-H2342,0.803
15,ChaGo-K-1,0.891
16,SW 900,0.965
17,NCI-H1648,1
18,NCI-H441,0.736

# Compound: CCN1CCN(c2ccc(Nc3cc(N(C)C(=O)Nc4c(Cl)c(OC)cc(OC)c4Cl)ncn3)cc2)CC1 [BGJ398]
# Test: as above
# Details: 0.01 µM
# Procedure, shortened: as §2
row,Cell Line,relative viability
1,NCI-H522,0.918
2,NCI-H1623,1.08
3,NCI-H727,0.868
4,NCI-H1650,0.874
5,EBC-1,0.975
6,NCI-H1703,0.872
7,NCI-H1993,1.24
8,SW 1573,0.975
9,NCI-H838,0.845
10,LCLC-103H,0.984
11,NCI-H520,0.954
12,NCI-H2126,1.02
13,EMC-BAC-2,1.17
14,NCI-H2342,0.998
15,ChaGo-K-1,1.06
16,SW 900,1
17,NCI-H1648,0.882
18,NCI-H441,0.807

# Same assay, conditions: 0.03162 µM
row,Cell Line,relative viability
1,NCI-H522,0.89
2,NCI-H1623,0.805
3,NCI-H727,0.879
4,NCI-H1650,0.747
5,EBC-1,0.981
6,NCI-H1703,1.04
7,NCI-H1993,0.893
8,SW 1573,0.934
9,NCI-H838,0.938
10,LCLC-103H,0.903
11,NCI-H520,0.954
12,NCI-H2126,0.999
13,EMC-BAC-2,1.15
14,NCI-H2342,0.96
15,ChaGo-K-1,0.987
16,SW 900,0.899
17,NCI-H1648,0.809
18,NCI-H441,0.977

# Same assay, conditions: 0.1 µM
row,Cell Line,relative viability
1,NCI-H522,1.04
2,NCI-H1623,1.05
3,NCI-H727,0.917
4,NCI-H1650,0.909
5,EBC-1,1.09
6,NCI-H1703,1.02
7,NCI-H1993,0.957
8,SW 1573,0.94
9,NCI-H838,0.984
10,LCLC-103H,1.06
11,NCI-H520,0.758
12,NCI-H2126,1.04
13,EMC-BAC-2,0.964
14,NCI-H2342,0.934
15,ChaGo-K-1,1.03
16,SW 900,0.779
17,NCI-H1648,0.73
18,NCI-H441,1.16

# Same assay, conditions: 0.3162 µM
row,Cell Line,relative viability
1,NCI-H522,0.82
2,NCI-H1623,0.908
3,NCI-H727,0.957
4,NCI-H1650,0.487
5,EBC-1,1.03
6,NCI-H1703,0.806
7,NCI-H1993,0.972
8,SW 1573,0.893
9,NCI-H838,0.8
10,LCLC-103H,0.792
11,NCI-H520,0.312
12,NCI-H2126,0.989
13,EMC-BAC-2,0.945
14,NCI-H2342,1.02
15,ChaGo-K-1,1.03
16,SW 900,0.428
17,NCI-H1648,0.775
18,NCI-H441,1.05

# Same assay, conditions: 1 µM
row,Cell Line,relative viability
1,NCI-H522,0.874
2,NCI-H1623,1.03
3,NCI-H727,0.917
4,NCI-H1650,0.692
5,EBC-1,1.14
6,NCI-H1703,0.967
7,NCI-H1993,0.886
8,SW 1573,0.999
9,NCI-H838,0.742
10,LCLC-103H,0.79
11,NCI-H520,0.4
12,NCI-H2126,0.948
13,EMC-BAC-2,0.942
14,NCI-H2342,1.11
15,ChaGo-K-1,1.02
16,SW 900,0.453
17,NCI-H1648,0.889
18,NCI-H441,1.01
